Measurements as given in ChEMBL document CHEMBL3112532, “Synthesis, [¹⁸F] radiolabeling, and evaluation of poly (ADP-ribose) polymerase-1 (PARP-1) inhibitors for in vivo imaging of PARP-1 using positron emission tomography” (Bioorg Med Chem, 2014).

Assays:
[1] = target: Poly [ADP-ribose] polymerase 1 (Homo sapiens, UniProt P09874); assay: Inhibition of PARP-1 (unknown origin) assessed as NAD+ consumption after 20 mins by fluorometric analysis in presence of activated DNA
Tumour [2] = assay: Drug uptake in tumor of athymic nu/nu mouse xenografted with human MDA-MB-436 cells at 200 uCi measured at 60 mins by microPET image analysis; format: ADME, Neoplasm; settings: 1 h
Tumour [3] = assay: Drug uptake in tumor of athymic nu/nu mouse xenografted with human MDA-MB-436 cells at 200 uCi measured at 60 mins by microPET image analysis in presence of 5,6-Dihydro-2-(4-(2-fluoroethoxy)phenyl)-imidazo[4,5,1-jk][1,4]benzodiazepin-7(4H)-one; format: ADME, Neoplasm; settings: 1 h
Tumour [4] = assay: Drug uptake in tumor of athymic nu/nu mouse xenografted with human MDA-MB-231 cells at 200 uCi measured at 60 mins by microPET image analysis in presence of olaparib; format: ADME, Neoplasm; settings: in vivo, 1 h

Chain of Poly [ADP-ribose] polymerase 1 (P09874 whole entry): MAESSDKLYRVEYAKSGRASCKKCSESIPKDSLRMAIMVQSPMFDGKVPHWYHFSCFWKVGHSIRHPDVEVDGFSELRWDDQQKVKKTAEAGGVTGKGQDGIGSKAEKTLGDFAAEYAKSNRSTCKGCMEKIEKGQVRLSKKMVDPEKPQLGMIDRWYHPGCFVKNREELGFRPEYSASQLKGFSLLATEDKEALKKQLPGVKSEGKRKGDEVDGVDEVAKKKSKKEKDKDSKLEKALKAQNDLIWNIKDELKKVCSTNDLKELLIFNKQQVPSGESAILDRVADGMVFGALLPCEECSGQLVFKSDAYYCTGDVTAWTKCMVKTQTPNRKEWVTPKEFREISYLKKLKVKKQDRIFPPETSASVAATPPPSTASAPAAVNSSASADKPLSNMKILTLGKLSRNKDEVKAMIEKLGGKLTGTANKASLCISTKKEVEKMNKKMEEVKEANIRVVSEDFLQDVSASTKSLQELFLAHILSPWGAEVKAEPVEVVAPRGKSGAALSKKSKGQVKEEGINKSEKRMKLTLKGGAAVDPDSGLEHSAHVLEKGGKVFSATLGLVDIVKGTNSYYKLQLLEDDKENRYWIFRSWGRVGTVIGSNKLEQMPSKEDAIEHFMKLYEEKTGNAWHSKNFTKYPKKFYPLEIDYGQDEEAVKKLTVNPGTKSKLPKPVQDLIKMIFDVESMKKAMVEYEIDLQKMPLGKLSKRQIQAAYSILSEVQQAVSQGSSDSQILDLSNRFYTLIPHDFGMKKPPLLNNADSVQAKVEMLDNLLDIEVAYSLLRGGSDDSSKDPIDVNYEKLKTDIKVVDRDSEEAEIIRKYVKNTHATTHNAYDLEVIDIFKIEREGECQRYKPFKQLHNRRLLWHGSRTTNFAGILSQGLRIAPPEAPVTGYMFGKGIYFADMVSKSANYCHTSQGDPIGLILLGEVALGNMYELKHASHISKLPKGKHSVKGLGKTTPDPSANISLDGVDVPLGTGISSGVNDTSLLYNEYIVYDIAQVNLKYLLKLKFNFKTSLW

Row | IC50 [1] | Drug uptake (Tumour [2]) | Drug uptake (Tumour [3]) | Drug uptake (Tumour [4]) | SMILES
1 | 6.3 nM |  |  |  | O=C1NCCn2c(-c3ccc(OCCF)cc3)nc3cccc1c32
2 |  | Active | Not Active | Not Active | O=C1NCCn2c(-c3ccc(OCC[18F])cc3)nc3cccc1c32
